# From patent US20180228811A1, “GDNF INDUCTION FOR THE TREATMENT OF RETINAL DISORDERS” (THE SCHEPENS EYE RESEARCH INSTITUTE, INC., priority 2014, published 2018)
# Experiments:
# GDNF [1] = assay: GDNF protein induction in ARPE19 cells (ELISA); type: cell-based, human
# Procedure: GDNF induction […] was assessed using three retinal-specific cell systems: ARPE19, as a model for human retinal pigment epithelium; human retinal progenitor cells (hRPC), as a substitute for human retinal neurons/glia; and mouse eyecups, differentiated from induced pluripotent stem cells. ARPE19 cells are described in Dunn et al., Exp. Eye Res. 62: 155-169, 1996. To study GDNF induction in a human retinal pigment epithelium cell line, ARPE19, thawed ARPE19 cells (passage 33, ATCC) were plated on fibronectin (Akron)-coated plates (Nunc) in stimulation medium at a density of 10 k cells/sq.cm. The flasks were incubated at standard conditions: 37° C., 5% CO2, 100% humidity. Cells were plated 24 hours prior to Compound I treatment and were grown in Ultraculture medium (Lonza), supplemented with 1×MEM NEAA (Gibco), 1× L-glutamine (Gibco), 1× Antibiotic/antimycotic (Gibco), 2 ng/ml bFGF (Peprotech), 1 ng/ml EGF (Peprotech). For qPCR analysis, the experiments were performed in 35 mm Petri dishes in 2 ml of medium with Compound I concentration of 100 nM (DMSO-based solution). Total mRNA was isolated at 0, 15, 30, 60, 120, 240 minutes post stimulation. For protein expression determination by ELISA, the experiments were performed in 96 well plates in 100 ul of medium with each condition (concentrations ranging from 0 to 10 uM) reproduced in 3 wells. For ELISA analysis, plates were removed from out of incubator 24 hours post stimulation and freeze-thawed followed by CHAPS lysis buffer treatment for total […] extraction. The ELISA analysis for GDNF was performed using GDNF DuoSet kit (R&D systems) using manufacturer's instructions.
# GDNF [2] = assay: GDNF induction in mouse eyecups differentiated from induced pluripotent stem cells (ELISA); type: cell-based
# Procedure: GDNF induction […] was assessed using three retinal-specific cell systems: ARPE19, as a model for human retinal pigment epithelium; human retinal progenitor cells (hRPC), as a substitute for human retinal neurons/glia; and mouse eyecups, differentiated from induced pluripotent stem cells. ARPE19 cells are described in Dunn et al., Exp. Eye Res. 62: 155-169, 1996. To study GDNF induction in a human retinal pigment epithelium cell line, ARPE19, thawed ARPE19 cells (passage 33, ATCC) were plated on fibronectin (Akron)-coated plates (Nunc) in stimulation medium at a density of 10 k cells/sq.cm. The flasks were incubated at standard conditions: 37° C., 5% CO2, 100% humidity. Cells were plated 24 hours prior to Compound I treatment and were grown in Ultraculture medium (Lonza), supplemented with 1×MEM NEAA (Gibco), 1× L-glutamine (Gibco), 1× Antibiotic/antimycotic (Gibco), 2 ng/ml bFGF (Peprotech), 1 ng/ml EGF (Peprotech). […]
# To study GDNF induction in retina-like tissue structures, mouse eyecups were differentiated from wild-type mouse induced pluripotent stem cells according to the protocol described previously (Eiraku, M. & Sasai, Y., Nat Protoc 7, 69-79 (2012)). […] The results of dose-dependent GDNF induction were analyzed by ANOVA (p<0.05).
smiles,measurement,setting,value
"COc1cc2c(cc1S(=O)(=O)c1ccc(OCc3ccc(Cl)cc3)cc1)CCN(C)CC2 [Compound I, 7-[4-(4-chloro-benzyloxy)-benzenesulfonyl]-8-methoxy-3-methyl-2,3,4,5-tetrahydro-1H-3-benzazepine]",GDNF induction,GDNF [1]; ARPE19,More than 2 fold
same,"GDNF induction, result in words","GDNF [1]; ARPE19, 0 to 10 uM",Significant dose-dependent GDNF induction
same,concentration of Compound I at which GDNF was upregulated,"GDNF [1]; ARPE19, ELISA, FIG. 1C",3 µM
same,increase of GDNF protein levels in vitro,"GDNF [1]; in vitro, cell system not stated (mRNA was measured in ARPE19 only)",1.8 fold
same,GDNF induction,GDNF [2],More than 2 fold
same,"GDNF induction, result in words",GDNF [2]; 0 to 10 uM,Significant dose-dependent GDNF induction
